Assay results published in US20230330196A1, “IMMUNOSUPPRESSIVE AGENTS” (The Trustees of Columbia University in the City of New York, priority 2020, published 2023).

System: allo-reactive T cells
Assay: Mixed lymphocyte reaction, B6 SPCs cocultured with irradiated BALB/c SPCs with WT or E223A mutant MMP13
Type: cell-based, mouse
Settings: 5 days coculture
Protocol: Flow cytometric analysis: Single-cell suspensions were filtered through nylon mesh and stained with the following antibodies: CD3, CD4, CD8, CD25, IFN-g, PD-L1, CD11c, B220, CD11b, F4/80, and then analyzed by FCM using Fortessa.
SPCs from B6 mice were seeded at 5×10e5/well, cocultured with irradiated BALB/c SPCs (5×10e5/well) in the presence of recombinant human MMP13 (WT-MMP13) or mutant MMP13 (E223A, muMMP13) proteins for 5 days.

## mu-MMP13: catalytically-inactive E223A point mutant of MMP-13
Decreased from 21.1% without MMP13
  CFSElo CD25+ of CD4+ T cells: 3.2%
Down from 41.5% without MMP13
  CFSElo CD25+ of CD8+ T cells: 2.5%
